Test results published in patent publication US20240382481A1 (priority 2021, published 2024).

What was measured:
Test in all cases: biochemical
[1] = biological target: SRPK2 (Homo sapiens, UniProt P78362)
[2] = biological target: SRPK3/MSSK1/STK23 (Homo sapiens, UniProt Q9UPE1)
[3] = biological target: SRPK1 (Homo sapiens, UniProt Q96SB4)
SRPK1, sequence (Q96SB4 whole entry, species assumed): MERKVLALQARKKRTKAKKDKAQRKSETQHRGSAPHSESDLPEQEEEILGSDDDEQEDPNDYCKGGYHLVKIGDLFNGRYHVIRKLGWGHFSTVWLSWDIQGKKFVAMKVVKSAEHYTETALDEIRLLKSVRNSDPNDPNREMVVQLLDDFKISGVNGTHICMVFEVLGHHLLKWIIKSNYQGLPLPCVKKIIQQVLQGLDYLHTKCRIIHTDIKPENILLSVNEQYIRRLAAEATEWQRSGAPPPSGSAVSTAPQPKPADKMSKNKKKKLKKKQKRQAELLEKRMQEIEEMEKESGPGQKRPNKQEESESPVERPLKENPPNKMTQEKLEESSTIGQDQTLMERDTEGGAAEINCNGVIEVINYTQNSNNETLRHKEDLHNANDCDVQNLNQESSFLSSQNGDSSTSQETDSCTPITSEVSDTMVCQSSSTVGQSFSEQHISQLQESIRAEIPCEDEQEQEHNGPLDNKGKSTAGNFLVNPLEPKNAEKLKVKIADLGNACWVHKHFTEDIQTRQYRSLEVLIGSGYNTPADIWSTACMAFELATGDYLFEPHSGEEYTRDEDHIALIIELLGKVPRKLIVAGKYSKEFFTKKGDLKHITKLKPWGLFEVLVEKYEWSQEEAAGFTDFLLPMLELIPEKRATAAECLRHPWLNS

SRPK2, sequence (P78362 whole entry, species assumed): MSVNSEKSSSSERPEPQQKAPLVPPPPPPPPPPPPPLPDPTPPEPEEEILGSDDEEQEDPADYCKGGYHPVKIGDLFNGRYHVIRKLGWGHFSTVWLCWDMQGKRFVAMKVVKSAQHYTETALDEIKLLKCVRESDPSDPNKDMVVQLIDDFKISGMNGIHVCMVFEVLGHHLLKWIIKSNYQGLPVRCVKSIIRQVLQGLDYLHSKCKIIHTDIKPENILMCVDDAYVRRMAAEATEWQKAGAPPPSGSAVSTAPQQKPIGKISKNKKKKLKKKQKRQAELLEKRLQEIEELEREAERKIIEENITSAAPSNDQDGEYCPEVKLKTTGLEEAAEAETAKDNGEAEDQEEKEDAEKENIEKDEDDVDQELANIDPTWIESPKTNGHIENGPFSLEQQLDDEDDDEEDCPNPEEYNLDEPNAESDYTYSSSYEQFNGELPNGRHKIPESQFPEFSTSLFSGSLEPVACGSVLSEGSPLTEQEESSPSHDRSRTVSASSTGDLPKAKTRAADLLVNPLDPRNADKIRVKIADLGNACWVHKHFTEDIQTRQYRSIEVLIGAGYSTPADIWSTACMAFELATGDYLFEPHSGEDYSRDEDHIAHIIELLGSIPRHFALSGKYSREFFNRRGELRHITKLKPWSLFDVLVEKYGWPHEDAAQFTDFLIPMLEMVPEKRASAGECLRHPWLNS
SRPK3/MSSK1/STK23, sequence (Q9UPE1 whole entry): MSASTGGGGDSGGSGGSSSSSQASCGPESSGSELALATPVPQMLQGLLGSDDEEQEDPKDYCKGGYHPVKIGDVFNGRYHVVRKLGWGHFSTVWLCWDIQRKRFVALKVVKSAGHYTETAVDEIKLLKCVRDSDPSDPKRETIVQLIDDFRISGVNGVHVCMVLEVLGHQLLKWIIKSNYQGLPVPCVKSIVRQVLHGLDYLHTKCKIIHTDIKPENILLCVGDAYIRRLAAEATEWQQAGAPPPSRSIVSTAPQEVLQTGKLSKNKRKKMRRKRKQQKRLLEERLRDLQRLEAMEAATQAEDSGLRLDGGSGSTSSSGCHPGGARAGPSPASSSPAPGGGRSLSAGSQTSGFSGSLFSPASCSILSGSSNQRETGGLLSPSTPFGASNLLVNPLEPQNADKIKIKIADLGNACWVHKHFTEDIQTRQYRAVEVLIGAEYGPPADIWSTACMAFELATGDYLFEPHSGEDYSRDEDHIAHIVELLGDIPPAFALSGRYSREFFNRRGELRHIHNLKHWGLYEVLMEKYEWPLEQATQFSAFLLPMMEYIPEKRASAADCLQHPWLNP

SMILES	IC50 [1]	IC50 [2]	IC50 [3]
CN(c1ncccc1Cn1c(=O)ccc2cnc(-c3nc4cc(Cl)ccc4[nH]3)cc21)S(C)(=O)=O [Compound B20]	50 to 500 nM	500 to 2500 nM	50 to 500 nM
CCN(c1ncccc1CNc1ccnc(-c2nc3cc(Cl)ccc3[nH]2)n1)S(C)(=O)=O [Compound B8]	50 to 500 nM		< 50 nM
CCN(c1ncccc1Cn1ccc2cnc(-c3nc4cc(Cl)ccc4[nH]3)cc21)S(C)(=O)=O [Compound B16]	50 to 500 nM	50 to 500 nM	50 to 500 nM
CCn1c(-c2nccc(NCc3cccnc3N(C)S(C)(=O)=O)n2)nc2cc(Cl)ccc21 [Compound B15]	500 to 2500 nM		< 50 nM
CN(c1ncncc1CNc1ccnc(-c2nc3cc(Cl)ccc3[nH]2)n1)S(C)(=O)=O [Compound B4]	500 to 2500 nM		50 to 500 nM
CN(c1ncccc1CNc1ccnc(-c2nc3cc(C(C)(C)C)c(F)cc3[nH]2)n1)S(C)(=O)=O [Compound B18]	500 to 2500 nM	< 50 nM	50 to 500 nM

Further lines, results first:

IC50 [1]	IC50 [2]	IC50 [3]	SMILES
50 to 500 nM			CN(c1ncccc1CNc1ccnc(-c2nc3cc(Cl)c(Cl)cc3n2C)n1)S(C)(=O)=O [Compound B19]
50 to 500 nM	< 50 nM	50 to 500 nM	CN(c1ncccc1CNc1cccc(-c2nc3cc(Cl)ccc3n2C)n1)S(C)(=O)=O [Compound B6]
50 to 500 nM	50 to 500 nM	< 50 nM	Cc1cc2cnc(-c3nc4cc(Cl)c(Cl)cc4n3C)nc2n1Cc1cccnc1N(C)S(C)(=O)=O [Compound B22]
50 to 500 nM	< 50 nM	< 50 nM	Cc1cc(Cl)cc2nc(-c3nccc(NCc4cccnc4N(C)S(C)(=O)=O)n3)[nH]c12 [Compound B9]
50 to 500 nM	50 to 500 nM	< 50 nM	Cc1cc2cnc(-c3nc4cc(Cl)ccc4n3C)nc2n1Cc1cccnc1N(C)S(C)(=O)=O [Compound B21]
50 to 500 nM		< 50 nM	CN(c1ccccc1CNc1cccc(-c2nc3cc(Cl)ccc3[nH]2)n1)S(C)(=O)=O [Compound B3]
